Data from patent US7118895B2, “Process for producing aglycon by using diglycosidase and flavor-improved food containing the aglycon and converting agent to be used in the process” (Amano Enzyme Inc., priority 2000, dated 2006).

How the values were obtained:
[1] = test system: Diglycosidase derived from P. multicolor; assay: Reactivity toward various isoflavone glycosides (HPLC); type: biochemical, Penicillium multicolor; design: glucoside / aglycon: unit not given here; conditions: 55 °C, pH 4.0
Outline: (§1)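 Aglycone liberation was measured by reversed-phase HPLC (260 nm, calibration-curve quantitation) after ethanol extraction at 0, 1, 3 and 6 h. Reactions ran at 55° C, pH 4.0 (20 mM acetate), with each glycoside (from 2 mM methanol stock) and 0.75 AU/mL enzyme solution.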

[2] = test system: β-Glucosidase derived from A. niger; assay: as above; type: biochemical, Aspergillus niger; design: glucoside / aglycon: unit not given here; conditions: 55 °C, pH 4.0
Outline: as §1

Crude diglycosidase = assay: Examination of substrate concentration in the conversion into isoflavone aglycons by diglycosidase using soybean materials; type: biochemical, Penicillium multicolor IAM7153;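 on Decomposition efficiency: ratio of each glycoside/aglycon within its isoflavone family: percent of the isoflavone family total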
Outline: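 Reaction at 55° C, shaken, pH 4.0 (20 mM acetate), using crude diglycosidase from a 1.88 AU/mL enzyme solution on soy flour, soymilk, defatted soybean or soy protein concentrate at 2, 5, 10, 20 or 30% (w/v). Isoflavone aglycons quantified by HPLC of ethanol extracts at 0, 1, 3, 6 h.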

aglycon ([1]; Reaction time 0 h): 0 | glucoside ([1]; Reaction time 0 h): 100 | aglycon ([1]; Reaction time 1 h): 50.8 | glucoside ([1]; Reaction time 1 h): 49.2 | aglycon ([1]; Reaction time 3 h): 60.1 | glucoside ([1]; Reaction time 3 h): 39.9 | aglycon ([1]; Reaction time 6 h): 61.5 | glucoside ([1]; Reaction time 6 h): 38.5 | aglycon ([2]; Reaction time 0 h): 0 | glucoside ([2]; Reaction time 0 h): 100 | aglycon ([2]; Reaction time 1 h): 4.5 | glucoside ([2]; Reaction time 1 h): 95.5 | aglycon ([2]; Reaction time 3 h): 9.3 | glucoside ([2]; Reaction time 3 h): 90.7 | aglycon ([2]; Reaction time 6 h): 16 | glucoside ([2]; Reaction time 6 h): 84 | Decomposition efficiency: ratio of each glycoside/aglycon within its isoflavone family (Crude diglycosidase; roasted soy flour, substrate concentration 2%, heat treatment of enzyme no, reaction time 0 h): not detected | Decomposition efficiency: ratio of each glycoside/aglycon within its isoflavone family (Crude diglycosidase; roasted soy flour, substrate concentration 2%, heat treatment of enzyme no, reaction time 1 h): not detected | Decomposition efficiency: ratio of each glycoside/aglycon within its isoflavone family (Crude diglycosidase; roasted soy flour, substrate concentration 2%, heat treatment of enzyme no, reaction time 3 h): not detected | Decomposition efficiency: ratio of each glycoside/aglycon within its isoflavone family (Crude diglycosidase; roasted soy flour, substrate concentration 2%, heat treatment of enzyme no, reaction time 6 h): not detected | Decomposition efficiency: ratio of each glycoside/aglycon within its isoflavone family (Crude diglycosidase; roasted soy flour, substrate concentration 2%, heat treatment of enzyme yes, reaction time 6 h): not detected | Decomposition efficiency: ratio of each glycoside/aglycon within its isoflavone family (Crude diglycosidase; roasted soy flour, substrate concentration 5%, heat treatment of enzyme no, reaction time 0 h): not detected | Decomposition efficiency: ratio of each glycoside/aglycon within its isoflavone family (Crude diglycosidase; roasted soy flour, substrate concentration 5%, heat treatment of enzyme no, reaction time 1 h): not detected | Decomposition efficiency: ratio of each glycoside/aglycon within its isoflavone family (Crude diglycosidase; roasted soy flour, substrate concentration 5%, heat treatment of enzyme no, reaction time 3 h): not detected | Decomposition efficiency: ratio of each glycoside/aglycon within its isoflavone family (Crude diglycosidase; roasted soy flour, substrate concentration 5%, heat treatment of enzyme no, reaction time 6 h): not detected | Decomposition efficiency: ratio of each glycoside/aglycon within its isoflavone family (Crude diglycosidase; roasted soy flour, substrate concentration 5%, heat treatment of enzyme yes, reaction time 6 h): not detected | Decomposition efficiency: ratio of each glycoside/aglycon within its isoflavone family (Crude diglycosidase; roasted soy flour, substrate concentration 10%, heat treatment of enzyme no, reaction time 0 h): not detected | Decomposition efficiency: ratio of each glycoside/aglycon within its isoflavone family (Crude diglycosidase; roasted soy flour, substrate concentration 10%, heat treatment of enzyme no, reaction time 1 h): not detected | Decomposition efficiency: ratio of each glycoside/aglycon within its isoflavone family (Crude diglycosidase; roasted soy flour, substrate concentration 10%, heat treatment of enzyme no, reaction time 3 h): not detected | Decomposition efficiency: ratio of each glycoside/aglycon within its isoflavone family (Crude diglycosidase; roasted soy flour, substrate concentration 10%, heat treatment of enzyme no, reaction time 6 h): not detected | Decomposition efficiency: ratio of each glycoside/aglycon within its isoflavone family (Crude diglycosidase; roasted soy flour, substrate concentration 10%, heat treatment of enzyme yes, reaction time 6 h): not detected | Decomposition efficiency: ratio of each glycoside/aglycon within its isoflavone family (Crude diglycosidase; roasted soy flour, substrate concentration 20%, heat treatment of enzyme no, reaction time 0 h): not detected | Decomposition efficiency: ratio of each glycoside/aglycon within its isoflavone family (Crude diglycosidase; roasted soy flour, substrate concentration 20%, heat treatment of enzyme no, reaction time 1 h): not detected | Decomposition efficiency: ratio of each glycoside/aglycon within its isoflavone family (Crude diglycosidase; roasted soy flour, substrate concentration 20%, heat treatment of enzyme no, reaction time 3 h): not detected | Decomposition efficiency: ratio of each glycoside/aglycon within its isoflavone family (Crude diglycosidase; roasted soy flour, substrate concentration 20%, heat treatment of enzyme no, reaction time 6 h): not detected | Decomposition efficiency: ratio of each glycoside/aglycon within its isoflavone family (Crude diglycosidase; roasted soy flour, substrate concentration 20%, heat treatment of enzyme yes, reaction time 6 h): not detected | Decomposition efficiency: ratio of each glycoside/aglycon within its isoflavone family (Crude diglycosidase; roasted soy flour, substrate concentration 30%, heat treatment of enzyme no, reaction time 0 h): not detected | Decomposition efficiency: ratio of each glycoside/aglycon within its isoflavone family (Crude diglycosidase; roasted soy flour, substrate concentration 30%, heat treatment of enzyme no, reaction time 1 h): not detected | Decomposition efficiency: ratio of each glycoside/aglycon within its isoflavone family (Crude diglycosidase; roasted soy flour, substrate concentration 30%, heat treatment of enzyme no, reaction time 3 h): not detected | Decomposition efficiency: ratio of each glycoside/aglycon within its isoflavone family (Crude diglycosidase; roasted soy flour, substrate concentration 30%, heat treatment of enzyme no, reaction time 6 h): not detected | Decomposition efficiency: ratio of each glycoside/aglycon within its isoflavone family (Crude diglycosidase; roasted soy flour, substrate concentration 30%, heat treatment of enzyme yes, reaction time 6 h): not detected | Decomposition efficiency: ratio of each glycoside/aglycon within its isoflavone family (Crude diglycosidase; soymilk, substrate concentration 2%, heat treatment of enzyme no, reaction time 0 h): 32.2% | Decomposition efficiency: ratio of each glycoside/aglycon within its isoflavone family (Crude diglycosidase; soymilk, substrate concentration 2%, heat treatment of enzyme no, reaction time 1 h): 27.5% | Decomposition efficiency: ratio of each glycoside/aglycon within its isoflavone family (Crude diglycosidase; soymilk, substrate concentration 2%, heat treatment of enzyme no, reaction time 3 h): 9.9% | Decomposition efficiency: ratio of each glycoside/aglycon within its isoflavone family (Crude diglycosidase; soymilk, substrate concentration 2%, heat treatment of enzyme no, reaction time 6 h): 2.9% | Decomposition efficiency: ratio of each glycoside/aglycon within its isoflavone family (Crude diglycosidase; soymilk, substrate concentration 2%, heat treatment of enzyme yes, reaction time 6 h): 47.0% | Decomposition efficiency: ratio of each glycoside/aglycon within its isoflavone family (Crude diglycosidase; soymilk, substrate concentration 5%, heat treatment of enzyme no, reaction time 0 h): 53.6% | Decomposition efficiency: ratio of each glycoside/aglycon within its isoflavone family (Crude diglycosidase; soymilk, substrate concentration 5%, heat treatment of enzyme no, reaction time 1 h): 34.2% | Decomposition efficiency: ratio of each glycoside/aglycon within its isoflavone family (Crude diglycosidase; soymilk, substrate concentration 5%, heat treatment of enzyme no, reaction time 3 h): 15.9% | Decomposition efficiency: ratio of each glycoside/aglycon within its isoflavone family (Crude diglycosidase; soymilk, substrate concentration 5%, heat treatment of enzyme no, reaction time 6 h): 6.1% | Decomposition efficiency: ratio of each glycoside/aglycon within its isoflavone family (Crude diglycosidase; soymilk, substrate concentration 5%, heat treatment of enzyme yes, reaction time 6 h): 47.6% | Decomposition efficiency: ratio of each glycoside/aglycon within its isoflavone family (Crude diglycosidase; soymilk, substrate concentration 10%, heat treatment of enzyme no, reaction time 0 h): 53.4% | Decomposition efficiency: ratio of each glycoside/aglycon within its isoflavone family (Crude diglycosidase; soymilk, substrate concentration 10%, heat treatment of enzyme no, reaction time 1 h): 37.4% | Decomposition efficiency: ratio of each glycoside/aglycon within its isoflavone family (Crude diglycosidase; soymilk, substrate concentration 10%, heat treatment of enzyme no, reaction time 3 h): 20.5% | Decomposition efficiency: ratio of each glycoside/aglycon within its isoflavone family (Crude diglycosidase; soymilk, substrate concentration 10%, heat treatment of enzyme no, reaction time 6 h): 10.7% | Decomposition efficiency: ratio of each glycoside/aglycon within its isoflavone family (Crude diglycosidase; soymilk, substrate concentration 10%, heat treatment of enzyme yes, reaction time 6 h): 47.8% | Decomposition efficiency: ratio of each glycoside/aglycon within its isoflavone family (Crude diglycosidase; soymilk, substrate concentration 20%, heat treatment of enzyme no, reaction time 0 h): 53.6% | Decomposition efficiency: ratio of each glycoside/aglycon within its isoflavone family (Crude diglycosidase; soymilk, substrate concentration 20%, heat treatment of enzyme no, reaction time 1 h): 41.2% | Decomposition efficiency: ratio of each glycoside/aglycon within its isoflavone family (Crude diglycosidase; soymilk, substrate concentration 20%, heat treatment of enzyme no, reaction time 3 h): 21.5% | Decomposition efficiency: ratio of each glycoside/aglycon within its isoflavone family (Crude diglycosidase; soymilk, substrate concentration 20%, heat treatment of enzyme no, reaction time 6 h): 16.4% | Decomposition efficiency: ratio of each glycoside/aglycon within its isoflavone family (Crude diglycosidase; soymilk, substrate concentration 20%, heat treatment of enzyme yes, reaction time 6 h): 48.1% | Decomposition efficiency: ratio of each glycoside/aglycon within its isoflavone family (Crude diglycosidase; soymilk, substrate concentration 30%, heat treatment of enzyme no, reaction time 0 h): 53.5% | Decomposition efficiency: ratio of each glycoside/aglycon within its isoflavone family (Crude diglycosidase; soymilk, substrate concentration 30%, heat treatment of enzyme no, reaction time 1 h): 43.8% | Decomposition efficiency: ratio of each glycoside/aglycon within its isoflavone family (Crude diglycosidase; soymilk, substrate concentration 30%, heat treatment of enzyme no, reaction time 3 h): 29.7% | Decomposition efficiency: ratio of each glycoside/aglycon within its isoflavone family (Crude diglycosidase; soymilk, substrate concentration 30%, heat treatment of enzyme no, reaction time 6 h): 21.9% | Decomposition efficiency: ratio of each glycoside/aglycon within its isoflavone family (Crude diglycosidase; soymilk, substrate concentration 30%, heat treatment of enzyme yes, reaction time 6 h): 46.9% | Decomposition efficiency of daidzin family in defatted soybean (Crude diglycosidase; substrate concentration 2%, heat treatment of enzyme no, reaction time 0 h): 42.2 | Decomposition efficiency of daidzin family in defatted soybean (Crude diglycosidase; substrate concentration 2%, heat treatment of enzyme no, reaction time 1 h): 35.2 | Decomposition efficiency of daidzin family in defatted soybean (Crude diglycosidase; substrate concentration 2%, heat treatment of enzyme no, reaction time 3 h): 21.2 | Decomposition efficiency of daidzin family in defatted soybean (Crude diglycosidase; substrate concentration 2%, heat treatment of enzyme no, reaction time 6 h): 16.5 | Decomposition efficiency of daidzin family in defatted soybean (Crude diglycosidase; substrate concentration 2%, heat treatment of enzyme yes, reaction time 6 h): 38.1 | Decomposition efficiency of daidzin family in defatted soybean (Crude diglycosidase; substrate concentration 5%, heat treatment of enzyme no, reaction time 0 h): 41.1 | Decomposition efficiency of daidzin family in defatted soybean (Crude diglycosidase; substrate concentration 5%, heat treatment of enzyme no, reaction time 1 h): 37.7 | Decomposition efficiency of daidzin family in defatted soybean (Crude diglycosidase; substrate concentration 5%, heat treatment of enzyme no, reaction time 3 h): 30.6 | Decomposition efficiency of daidzin family in defatted soybean (Crude diglycosidase; substrate concentration 5%, heat treatment of enzyme no, reaction time 6 h): 21.0 | Decomposition efficiency of daidzin family in defatted soybean (Crude diglycosidase; substrate concentration 5%, heat treatment of enzyme yes, reaction time 6 h): 38.1 | Decomposition efficiency of daidzin family in defatted soybean (Crude diglycosidase; substrate concentration 10%, heat treatment of enzyme no, reaction time 0 h): 39.7 | Decomposition efficiency of daidzin family in defatted soybean (Crude diglycosidase; substrate concentration 10%, heat treatment of enzyme no, reaction time 1 h): 39.5 | Decomposition efficiency of daidzin family in defatted soybean (Crude diglycosidase; substrate concentration 10%, heat treatment of enzyme no, reaction time 3 h): 34.2 | Decomposition efficiency of daidzin family in defatted soybean (Crude diglycosidase; substrate concentration 10%, heat treatment of enzyme no, reaction time 6 h): 29.0 | Decomposition efficiency of daidzin family in defatted soybean (Crude diglycosidase; substrate concentration 10%, heat treatment of enzyme yes, reaction time 6 h): 37.0
SMILES: O=C(O)CC(=O)OC[C@H]1O[C@@H](Oc2ccc3c(=O)c(-c4ccc(O)cc4)coc3c2)[C@H](O)[C@@H](O)[C@@H]1O [malonyldaidzin, 6″-O-malonyldaidzin]
